These results are taken from patent publication US20100137387A1, “BETA-KETO-AMIDE DERIVATIVES USEFUL AS ION CHANNEL MODULATORS” (NeuroSearch A/S, priority 2007, published 2010).

Usually Kd stands for the free concentration of one partner at which half of the binding sites on the other are occupied at equilibrium, for simple one-to-one binding.

In one experiment the target is chloride channel. The experiment is described as follows: In vitro human erythrocyte chloride conductance. It counts as cell-based. The conditions noted are these: suspensions of human erythrocytes; from Cl- netfluxes and membrane potentials; read-out: KD-value (chloride channel blocking activity, membrane Cl-conductance). The source says:
In this example the chloride channel blocking activity of an acetamide derivative representative of the invention, i.e. Compound 3 (3-(3,5-Bis-trifluoromethyl-phenyl)-3-oxo-N-[3-(1H-tetrazol-5-yl)-4′-trifluoromethoxy-biphenyl-4-yl]-propionamide), has been determined.
All dose-response experiments were therefore performed by concomitant measurements of conductive netfluxes of Cl^− (Jcl) and membrane potentials (Vm) in suspensions of erythrocytes as described by Bennekou et al. (Bennekou P and Christophersen P: Flux ratio of Valinomycin-Mediated K^+ Fluxes across the Human Red Cell Membrane in the presence of the Protronophore CCCP; J. Membrane Biol. 1986 93 221-227).
The membrane Cl-conductances (GCl) were calculated according to Hodgkin et al. (Hodgkin A L and Huxley A F: The components of membrane conductance in the giant axon of Loligo; J. Physiol. Lond. 1952 116 449-472) using the following equation: […]
where F is the Faraday constant and ECl is the Nernst potential for the Cl-ion.

A further experiment concerns the target T1, BK channels (Homo sapiens, UniProt Q12791).
T1 construct: expressed in transfected cells; host or cells: Xenopus laevis oocytes
The experiment is described as follows: BK channel activation, two-electrode voltage clamp in Xenopus laevis oocytes. Type of experiment: cell-based. The note with it: BK channels heterologously expressed in Xenopus laevis oocytes, 0.01-31.6 μM compound. The method, then:
In this example the BK channel opening activity of Compound 4 (i.e. N-[5-Chloro-2-(1H-tetrazol-5-yl)-phenyl]-3-(4-chloro-3-trifluoromethyl-phenyl)-3-oxo-propionamide) is determined using BK channels heterologously expressed in Xenopus laevis oocytes.
The electrical current through the BK channel is measured using conventional two-electrode voltage clamp. BK currents are activated by repeating ramp protocols. In brief, the membrane potential is continuously changed from −120 mV to +120 mV within 2 s. The threshold for BK activation is approximately +30 mV under control conditions. Compounds are applied for 100 s during which the ramp protocol is repeated 10 times with 10 s intervals. In between the ramp protocols the membrane potential is clamped at −80 mV. […]
In order to evaluate the ability of the compounds to shift the BK activation curve towards lower membrane potentials, the BK current was transformed into conductance by using Ohm's law g=I/(Ememb−Erev), where g is the conductance, I is the current, Ememb is the membrane potential and Erev is the reversal potential. […] The control conductance level at a membrane potential of +100 mV was calculated, and the compound effect was evaluated as the potential difference, ΔV, to the membrane potential at which the same conductance level was obtained in the presence of compound. […]
On the technique in general: Two-electrode voltage clamp holds a large cell at a set potential and records current.

Molecules are shown by their SMILES.

T1 sequence (Q12791 whole entry): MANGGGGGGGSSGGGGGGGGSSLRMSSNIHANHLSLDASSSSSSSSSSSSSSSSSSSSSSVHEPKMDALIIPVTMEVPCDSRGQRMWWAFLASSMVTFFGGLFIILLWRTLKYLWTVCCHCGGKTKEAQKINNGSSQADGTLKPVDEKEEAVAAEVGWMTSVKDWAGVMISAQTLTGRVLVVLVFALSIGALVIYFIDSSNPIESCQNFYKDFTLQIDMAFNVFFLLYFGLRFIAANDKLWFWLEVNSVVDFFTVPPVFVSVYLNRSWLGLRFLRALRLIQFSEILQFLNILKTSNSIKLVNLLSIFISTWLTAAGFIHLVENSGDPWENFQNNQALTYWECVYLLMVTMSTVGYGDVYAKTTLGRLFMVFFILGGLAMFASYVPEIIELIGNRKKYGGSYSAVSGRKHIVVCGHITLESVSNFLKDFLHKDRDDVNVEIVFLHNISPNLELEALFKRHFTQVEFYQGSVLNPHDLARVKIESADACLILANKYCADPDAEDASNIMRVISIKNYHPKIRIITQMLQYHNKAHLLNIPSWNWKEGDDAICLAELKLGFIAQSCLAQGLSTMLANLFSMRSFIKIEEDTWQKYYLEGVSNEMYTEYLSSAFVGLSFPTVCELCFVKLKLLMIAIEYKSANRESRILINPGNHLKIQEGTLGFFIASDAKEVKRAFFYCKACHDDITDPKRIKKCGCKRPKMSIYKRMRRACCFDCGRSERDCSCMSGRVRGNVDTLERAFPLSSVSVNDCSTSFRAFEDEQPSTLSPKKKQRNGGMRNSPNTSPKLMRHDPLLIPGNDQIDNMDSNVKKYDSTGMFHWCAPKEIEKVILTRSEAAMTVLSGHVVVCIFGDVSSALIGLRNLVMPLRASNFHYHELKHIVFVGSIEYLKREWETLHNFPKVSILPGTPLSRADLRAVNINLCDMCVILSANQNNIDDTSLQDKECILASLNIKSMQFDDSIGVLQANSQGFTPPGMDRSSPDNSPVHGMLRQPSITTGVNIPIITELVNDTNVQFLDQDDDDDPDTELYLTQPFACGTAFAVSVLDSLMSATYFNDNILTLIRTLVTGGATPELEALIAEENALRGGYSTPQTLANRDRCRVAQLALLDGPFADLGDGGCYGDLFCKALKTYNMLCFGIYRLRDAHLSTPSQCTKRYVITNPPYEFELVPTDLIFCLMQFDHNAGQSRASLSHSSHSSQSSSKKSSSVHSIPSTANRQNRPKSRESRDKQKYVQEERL

Turning to `O=C(CC(=O)c1cc(C(F)(F)F)cc(C(F)(F)F)c1)Nc1ccc(-c2ccc(OC(F)(F)F)cc2)cc1-c1nnn[nH]1` [Compound 3, 3-(3,5-Bis-trifluoromethyl-phenyl)-3-oxo-N-[3-(1H-tetrazol-5-yl)-4′-trifluoromethoxy-biphenyl-4-yl]-propionamide], the dissociation constant (Kd) at chloride channel amounted to 0.21 µM.

Regarding `O=C(CC(=O)c1ccc(Cl)c(C(F)(F)F)c1)Nc1cc(Cl)ccc1-c1nnn[nH]1` [Compound 4, N-[5-Chloro-2-(1H-tetrazol-5-yl)-phenyl]-3-(4-chloro-3-trifluoromethyl-phenyl)-3-oxo-propionamide], at BK channels (fitted to sigmoidal logistic equation), the “ΔVmax (maximal left shift of the BK activation curve)” value was −123 mV. Further, on BK channels (ΔV vs. control conductance at +100 mV, read-out: EC50 for the left-shift of the BKCa-activation curve), the EC50 came out at 1.8 µM.
